From patent publication US20240383882A1 (Ecstasy LLC, priority 2020, published 2024)
Where a name gives a salt, the structure may show the parent alone. Read-outs that look alike come from different tables or passages of the source.

Tested on: male C57BL/6 mice
Assay: 55° C. warm-water tail-flick test (antinociception)
Assay type: in vivo
Details: Mus musculus
Outline: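 Subcutaneous dosing, then tail immersion in 55° C water at 30–120 min; latency normalized as 100×(test−control)/(20−control), using a 20 s cutoff, after excluding mice not responding within 2 s at baseline. Values expressed as ED50 (mg/kg).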

[1] = half maximal effective dose in mice, using one of: warm water tail-flick test, spared nerve injury, chronic constriction injury, or Complete Freund's adjuvant induced inflammatory pain (not stated which per compound), read-out: Biological Activity (ED50)
[2] = sc, 0.5 h, compounds of Table I, s.c., 30 min, 55° C. water, configuration tested as in Table II, read-out: ED50 (mg/kg) at 30 min on C57BL/6 mice in Warm-water Tail-flick Test

| SMILES | ED50 [1] [mg/kg] | ED50 [2] [mg/kg] |
| --- | --- | --- |
| CSc1ccc(C(C)(C)N2CC[C@@](CCc3ccc(F)cc3)(COCc3ccccc3)C2)cc1 [Compound 40, (R)-3-((benzyloxy)methyl)-3-(4-fluorophenethyl)-1-(2-(4-(methylthio)phenyl)propan-2-yl)pyrrolidine] | > 50 |  |
| CCOC(C(F)(F)F)(C(F)(F)F)[C@]1(COCc2ccccc2)CCN(C(C)(C)c2ccns2)C1 [Compound 23, (R)-5-(2-(3-((benzyloxy)methyl)-3-(2-ethoxy-1,1,1,3,3,3-hexafluoropropan-2-yl)pyrrolidin-1-yl)propan-2-yl)isothiazole] | > 50 |  |
| CC(C)(c1ccccn1)N1CC[C@@](CCc2ccc(C#N)cc2)(C(=O)O)C1 [Compound 138, (R)-3-(4-cyanophenethyl)-1-(2-(pyridin-2-yl)propan-2-yl)pyrrolidine-3-carboxylic acid] | > 50 |  |
| CC(C)(c1ccccn1)N1CC[C@@](CCc2cccc(C#N)c2)(C(O)C(F)(F)F)C1 (single isomer, unassigned) [Compound 134, 3-(2-((R)-1-(2-(pyridin-2-yl)propan-2-yl)-3-((R or S)-2,2,2-trifluoro-1-hydroxyethyl)pyrrolidin-3-yl)ethyl) benzonitrile] | > 50 |  |
| CC(C)(c1ccccn1)N1CC[C@@](CCc2ccc(C#N)cc2)(COCc2ccccc2)C1 [Compound 131, (R)-4-(2-(3-((benzyloxy)methyl)-1-(2-(pyridin-2-yl)propan-2-yl)pyrrolidin-3-yl)ethyl) benzonitrile] | > 50 |  |
| Cc1ccc(C(C)(C)N2CC[C@](CO)(CCc3ccc(C#N)cc3)C2)cn1 [Compound 18, (R)-4-(2-(3-(hydroxymethyl)-1-(2-(6-methylpyridin-3-yl)propan-2-yl)pyrrolidin-3-yl)ethyl) benzonitrile] | ≤ 30 |  |
| CC(C)(c1ccccn1)N1CC[C@](CO)(CCc2ccc(C(F)(F)F)o2)C1 [Compound 189, (R)-(1-(2-(pyridin-2-yl)propan-2-yl)-3-(2-(5-(trifluoromethyl)furan-2-yl)ethyl)pyrrolidin-3-yl)methano] | > 50 |  |
| CCC(C)(c1ccc(C)nc1)N1CCC(CCc2cccs2)(C2OCCc3ccccc32)C1 (single isomer, unassigned) [Compound 89, 5-(2-((R or S)-3-((S or R)-isochroman-1-yl)-3-(2-(thiophen-2-yl)ethyl)pyrrolidin-1-yl)butan-2-yl)-2-methylpyridine citrate] |  | ≤ 30 |
| CC(C)(c1ccccn1)N1CC[C@@](CCc2ccc(C#N)s2)(C(O)(C(F)(F)F)C(F)(F)F)C1 [Compound 160, (R)-5-(2-(3-(1,1,1,3,3,3-hexafluoro-2-hydroxypropan-2-yl)-1-(2-(pyridin-2-yl)propan-2-yl)pyrrolidin-3-yl)ethyl)thiophene-2-carbonitrile] | > 50 |  |
| N#Cc1ccc(CC[C@]2(COCc3ccccc3)CCN(C(c3cccnc3)c3cccnc3)C2)cc1 (single isomer, unassigned) [Compound 72] | > 50 |  |
| CCOC(C(F)(F)F)(C(F)(F)F)[C@]1(CCc2ccc(C#N)cc2)CCN(Cc2cccnc2)C1 [Compound 9, (R)-4-(2-(3-(2-ethoxy-1,1,1,3,3,3-hexafluoropropan-2-yl)-1-(pyridin-3-ylmethyl)pyrrolidin-3-yl)ethyl) benzonitrile] | > 50 |  |
| CCOC[C@]1(CCc2ccc(C#N)cc2)CCN(C(C)(C)c2ccccn2)C1 [Compound 132, (R)-4-(2-(3-(ethoxymethyl)-1-(2-(pyridin-2-yl)propan-2-yl)pyrrolidin-3-yl)ethyl) benzonitrile] | > 50 |  |
| CCOC[C@]1(CCc2ccc(C#N)cc2)CCN(C(c2cccnc2)c2cccnc2)C1 [Compound 10, (R)-4-(2-(1-(di(pyridin-3-yl)methyl)-3-(ethoxymethyl)pyrrolidin-3-yl)ethyl) benzonitrile] | > 50 |  |
| N#Cc1ccc(CC[C@@]2(C3OCC3(F)F)CCN(Cc3ccccn3)C2)cc1 (single isomer, unassigned) [Compound 196, 4-(2-((R)-3-((R or S)-3,3-difluorooxetan-2-yl)-1-(pyridin-2-ylmethyl)pyrrolidin-3-yl)ethyl) benzonitrile] | ≤ 30 |  |
| N#Cc1ccc(CC[C@]2(CO)CCN(C(c3ccc(F)cc3)c3cccnc3)C2)cc1 (some centres unmarked) [Compound 64] | > 50 |  |
| CC(C)(c1ccccn1)N1CC[C@@](CCc2ccc(C#N)cc2)(CNC2(C#N)COC2)C1 [Compound 209, (S)-3-(((3-(4-cyanophenethyl)-1-(2-(pyridin-2-yl)propan-2-yl)pyrrolidin-3-yl)methyl)amino) oxetane-3-carbonitrile] | > 50 |  |
| CC(C)(c1ccccc1)N1CC[C@](CCc2ccc(S(C)(=O)=O)cc2)([C@@H](O)C(F)(F)F)C1 [Compound 212, (R)-2,2,2-trifluoro-1-((S)-3-(4-(methylsulfonyl)phenethyl)-1-(2-phenylpropan-2-yl)pyrrolidin-3-yl)ethan-1-ol] | ≤ 30 |  |
| CCOCC1(CCn2cnc3cnccc32)CCN(C(C)(C)c2ccc(C)nc2)C1 (centres unmarked) [Compound 91, 1-(2-(3-(ethoxymethyl)-1-(2-(6-methylpyridin-3-yl)propan-2-yl)pyrrolidin-3-yl)ethyl)-1H-imidazo[4,5-c]pyridine citrate] |  | ≤ 30 |

| SMILES | ED50 [1] [mg/kg] | ED50 [2] [mg/kg] |
| --- | --- | --- |
| Fc1ccc(CC[C@@]2(C3CCO3)CCN(Cc3cccnc3)C2)cc1 (single isomer, unassigned) [Compound 12, 3-(((R)-3-(4-fluorophenethyl)-3-((R or S)-oxetan-2-yl)pyrrolidin-1-yl)methyl)pyridine] | ≤ 30 |  |
| COc1cccc(C(C)(C)N2CC[C@@](CCc3ccc(C#N)cc3)(C(=O)O)C2)c1 [Compound 143, (R)-3-(4-cyanophenethyl)-1-(2-(3-methoxyphenyl)propan-2-yl)pyrrolidine-3-carboxylic acid] | > 50 |  |
| Cc1ccc(C(C)(C)N2CCC(CCc3cccs3)(C3OCCc4ccccc43)C2)cn1 (single isomer, unassigned) [Compound 87, 5-(2-((R or S)-3-((S or R)-isochroman-1-yl)-3-(2-(thiophen-2-yl)ethyl)pyrrolidin-1-yl)propan-2-yl)-2-methylpyridine citrate] |  | ≤ 30 |
| Cc1ccc(C(C)(C)N2CCC(CCc3ccc(F)s3)(CN3CCOCC3)C2)cn1 (single isomer, unassigned) [Compound 106] |  | ≤ 30 |
| CC(C)(c1ccc(Cl)cc1)N1CC[C@@](CO)(CCc2ccc(S(C)(=O)=O)cc2)C1 [Compound 44] | > 50 |  |
| Cc1ccc(C(C)(C)N2CC[C@@](CCc3ccc(C#N)cc3)(CS(C)(=O)=O)C2)cn1 [Compound 19, (R)-4-(2-(1-(2-(6-methylpyridin-3-yl)propan-2-yl)-3-((methylsulfonyl)methyl)pyrrolidin-3-yl)ethyl)benzonitrile] | ≤ 30 |  |
| CC(C)(c1ccccn1)N1CC[C@@](CCc2ccc3ccoc3c2)(C(N)=O)C1 [Compound 174, (R)-3-(2-(benzofuran-6-yl)ethyl)-1-(2-(pyridin-2-yl)propan-2-yl)pyrrolidine-3-carboxamide] | ≤ 30 |  |
| CCOC(C(F)(F)F)[C@]1(CCc2ccc(C#N)cc2)CCN(C(C)(C)c2ccc(C)nc2)C1 (single isomer, unassigned) [Compound 170, 4-(2-((R)-3-((R or S)-1-ethoxy-2,2,2-trifluoroethyl)-1-(2-(6-methylpyridin-3-yl)propan-2-yl)pyrrolidin-3-yl)ethyl) benzonitrile] | > 50 |  |
| Cc1ccc(C(C)(C)N2CC[C@@](CCc3ccc(C#N)cc3)(C(=O)C(F)(F)F)C2)cn1 [Compound 166, (R)-4-(2-(1-(2-(6-methylpyridin-3-yl)propan-2-yl)-3-(2,2,2-trifluoroacetyl)pyrrolidin-3-yl)ethyl) benzonitrile] | ≤ 30 |  |
| Cc1ccc(C(C)(C)N2CCC(CCc3ccc(F)s3)(CNC(=O)Nc3ccccc3)C2)cn1 (single isomer, unassigned) [Compound 43] |  | ≤ 30 |
| CC(C)(c1ccccn1)N1CC[C@](CO)(CCc2ccccc2C#N)C1 [Compound 129, (R)-2-(2-(3-(hydroxymethyl)-1-(2-(pyridin-2-yl)propan-2-yl)pyrrolidin-3-yl)ethyl) benzonitrile] | > 50 |  |
| CC(C)(c1ccccn1)N1CC[C@@](CCc2ccc(C#N)cc2)(c2ncc[nH]2)C1 [Compound 107, (R)-4-(2-(3-(1H-imidazol-2-yl)-1-(2-(pyridin-2-yl)propan-2-yl)pyrrolidin-3-yl)ethyl) benzonitrile] | > 50 |  |
| CC(C)(c1ccccn1)N1CC[C@@](CCc2ccc(C#N)s2)(C(O)C(F)(F)F)C1 (single isomer, unassigned) [Compound 152, 5-(2-((R)-1-(2-(pyridin-2-yl)propan-2-yl)-3-((R or S)-2,2,2-trifluoro-1-hydroxyethyl)pyrrolidin-3-yl)ethyl)thiophene-2-carbonitrile] | ≤ 30 |  |
| Cc1ccc(CN2CC[C@@](CCc3ccc(C#N)cc3)(C3OCC3(F)F)C2)cn1 (single isomer, unassigned) [Compound 198, 4-(2-((R)-3-((R or S)-3,3-difluorooxetan-2-yl)-1-((6-methylpyridin-3-yl)methyl)pyrrolidin-3-yl)ethyl) benzonitrile] | ≤ 30 |  |
| CC(C)(c1ccccn1)N1CC[C@@](CCc2ccc(C#N)s2)(COCc2ccccc2)C1 [Compound 141, (R)-5-(2-(3-((benzyloxy)methyl)-1-(2-(pyridin-2-yl)propan-2-yl)pyrrolidin-3-yl)ethyl)thiophene-2-carbonitrile] | ≤ 30 |  |
| COC[C@@]1(CCc2ccc(S(C)(=O)=O)cc2)CCN(C(C)(C)c2ccc(Cl)cc2)C1 [Compound 43] | > 50 |  |
| CCOC[C@]1(CCc2ccc(C#N)cc2)CCN(C(C)c2ccnnc2)C1 (stereo partly drawn) [Compound 25, 4-(2-((3R)-3-(ethoxymethyl)-1-(1-(pyridazin-4-yl)ethyl)pyrrolidin-3-yl)ethyl)benzonitrile] | ≤ 30 |  |
